The text below walks through data of ChEMBL document CHEMBL4390652, “Design, biological evaluation and X-ray crystallography of nanomolar multifunctional ligands targeting simultaneously acetylcholinesterase and glycogen synthase kinase-3” (Eur J Med Chem, 2019).

The target in assay [1] is Serine/threonine-protein kinase Chk2 (Homo sapiens) (UniProt O96017). The assay can be described thus: Binding affinity to wild-type human partial length CHEK2 (S253 to E574 residues) expressed in bacterial expression system assessed as residual binding level at 10 uM by Kinomescan method relative to control.
For assay [2], the target named is Ephrin type-A receptor 1 (Homo sapiens) (UniProt P21709). The assay can be described thus: Binding affinity to wild-type human partial length EPHA1 (V588 to I913 residues) expressed in bacterial expression system assessed as residual binding level at 10 uM by Kinomescan method relative to control.
Assay [3] deals with Ephrin type-A receptor 7 (Homo sapiens) (UniProt Q15375). Put plainly: Binding affinity to wild-type human partial length EPHA7 (Y608 to S912 residues) expressed in bacterial expression system assessed as residual binding level at 10 uM by Kinomescan method relative to control.
Assay [4] has as its target G protein-coupled receptor kinase 4 (Homo sapiens) (UniProt P32298). Put plainly: Binding affinity to wild-type human full length GRK4 (M1 to C578 residues) expressed in bacterial expression system assessed as residual binding level at 10 uM by Kinomescan method relative to control.
The target of assay [5] is Mitogen-activated protein kinase kinase kinase kinase 1 (Homo sapiens) (UniProt Q92918). The assay can be described thus: Binding affinity to wild-type human full length HPK1 (M1 to R799 residues) expressed in bacterial expression system assessed as residual binding level at 10 uM by Kinomescan method relative to control.
In assay [6] the target is Serine/threonine-protein kinase ICK (Homo sapiens) (UniProt Q9UPZ9). The assay can be described thus: Binding affinity to wild-type human partial length ICK (M1 to P314 residues) expressed in mammalian expression system assessed as residual binding level at 10 uM by Kinomescan method relative to control.
The target of assay [7] is Insulin receptor-related protein (Homo sapiens) (UniProt P14616). The assay can be described thus: Binding affinity to wild-type human partial length INSRR (R950 to E1278 residues) expressed in bacterial expression system assessed as residual binding level at 10 uM by Kinomescan method relative to control.
Assay [8] relates to Mast/stem cell growth factor receptor Kit (Homo sapiens), P10721 [V559D]. The assay can be described thus: Binding affinity to human partial length KIT V559D mutant (Y545 to D952 residues) expressed in bacterial expression system assessed as residual binding level at 10 uM by Kinomescan method relative to control.
Assay [9] deals with Tyrosine-protein kinase Lyn (Homo sapiens) (UniProt P07948). Put plainly: Binding affinity to wild-type human partial length LYN (C219 to Q511 residues) expressed in bacterial expression system assessed as residual binding level at 10 uM by Kinomescan method relative to control.
For assay [10], the target named is MAP/microtubule affinity-regulating kinase 3 (Homo sapiens) (UniProt P27448). The assay can be described thus: Binding affinity to wild-type human full length MARK3 (M1 to L729 residues) expressed in bacterial expression system assessed as residual binding level at 10 uM by Kinomescan method relative to control.
Assay [11] has as its target Microtubule-associated serine/threonine-protein kinase 1 (Homo sapiens) (UniProt Q9Y2H9). Put plainly: Binding affinity to wild-type human partial length MAST1 (S346 to V730 residues) expressed in mammalian expression system assessed as residual binding level at 10 uM by Kinomescan method relative to control.
For assay [12], the target named is Tyrosine-protein kinase Mer (Homo sapiens) (UniProt Q12866). Put plainly: Binding affinity to wild-type human partial length MERTK (R557 to L884 residues) expressed in bacterial expression system assessed as residual binding level at 10 uM by Kinomescan method relative to control.
For assay [13], the system named is Hepatocyte growth factor receptor (Homo sapiens), P08581 [M1250T]. The assay can be described thus: Binding affinity to human partial length MET M1250T mutant (D1010 to S1367 residues) expressed in bacterial expression system assessed as residual binding level at 10 uM by Kinomescan method relative to control.
In assay [14] the target is Mitogen-activated protein kinase kinase kinase 11 (Homo sapiens) (UniProt Q16584). The assay can be described thus: Binding affinity to wild-type human partial length MLK3 (I77 to W399 residues) expressed in bacterial expression system assessed as residual binding level at 10 uM by Kinomescan method relative to control.
For assay [15], the target named is Mitogen-activated protein kinase kinase kinase 14 (Homo sapiens) (UniProt Q99558). The assay can be described thus: Binding affinity to wild-type human partial length NIK (L318 to P947 residues) expressed in mammalian expression system assessed as residual binding level at 10 uM by Kinomescan method relative to control.
Assay [16] has as its target Mitogen-activated protein kinase 12 (Homo sapiens) (UniProt P53778). The assay can be described thus: Binding affinity to wild-type human full length p38-gamma (M1 to L367 residues) expressed in mammalian expression system assessed as residual binding level at 10 uM by Kinomescan method relative to control.
For assay [17], the target named is Cyclin-dependent kinase 15 (Homo sapiens) (UniProt Q96Q40). Put plainly: Binding affinity to wild-type human full length PFTAIRE2 (M1 to W384 residues) expressed in bacterial expression system assessed as residual binding level at 10 uM by Kinomescan method relative to control.
For assay [18], the target named is Phosphatidylinositol 4-phosphate 5-kinase type-1 gamma (Homo sapiens) (UniProt O60331). Put plainly: Binding affinity to wild-type human partial length PIP5K1C (M1 to T668 residues) expressed in mammalian expression system assessed as residual binding level at 10 uM by Kinomescan method relative to control.
Assay [19] addresses Serine/threonine-protein kinase PknB (Mycobacterium tuberculosis) (UniProt P9WI81). The assay can be described thus: Binding affinity to wild-type Mycobacterium tuberculosis partial length PKNB (M1 to G279 residues) expressed in mammalian expression system assessed as residual binding level at 10 uM by Kinomescan method relative to control.
The target in assay [20] is Serine/threonine-protein kinase RIO2 (Homo sapiens) (UniProt Q9BVS4). Put plainly: Binding affinity to wild-type human partial length RIOK2 (M1 to D313 residues) expressed in mammalian expression system assessed as residual binding level at 10 uM by Kinomescan method relative to control.
Assay [21] concerns the target Serine/threonine-protein kinase Sgk2 (Homo sapiens) (UniProt Q9HBY8). Put plainly: Binding affinity to wild-type human partial length SGK2 (L54 to C427 residues) expressed in mammalian expression system assessed as residual binding level at 10 uM by Kinomescan method relative to control.
In assay [22] the target is SNF-related serine/threonine-protein kinase (Homo sapiens) (UniProt Q9NRH2). Put plainly: Binding affinity to wild-type human partial length SNRK (M1 to E339 residues) expressed in mammalian expression system assessed as residual binding level at 10 uM by Kinomescan method relative to control.
For assay [23], the target named is SRSF protein kinase 3 (Homo sapiens) (UniProt Q9UPE1). The assay can be described thus: Binding affinity to wild-type human partial length SRPK3 (P41 to P567 residues) expressed in bacterial expression system assessed as residual binding level at 10 uM by Kinomescan method relative to control.
Assay [24] has as its target STE20/SPS1-related proline-alanine-rich protein kinase (Homo sapiens) (UniProt Q9UEW8). The assay can be described thus: Binding affinity to wild-type human partial length STK39 (P43 to I357 residues) expressed in mammalian expression system assessed as residual binding level at 10 uM by Kinomescan method relative to control.

Chain of Tyrosine-protein kinase Lyn (Homo sapiens) (P07948 2-512 limits assumed): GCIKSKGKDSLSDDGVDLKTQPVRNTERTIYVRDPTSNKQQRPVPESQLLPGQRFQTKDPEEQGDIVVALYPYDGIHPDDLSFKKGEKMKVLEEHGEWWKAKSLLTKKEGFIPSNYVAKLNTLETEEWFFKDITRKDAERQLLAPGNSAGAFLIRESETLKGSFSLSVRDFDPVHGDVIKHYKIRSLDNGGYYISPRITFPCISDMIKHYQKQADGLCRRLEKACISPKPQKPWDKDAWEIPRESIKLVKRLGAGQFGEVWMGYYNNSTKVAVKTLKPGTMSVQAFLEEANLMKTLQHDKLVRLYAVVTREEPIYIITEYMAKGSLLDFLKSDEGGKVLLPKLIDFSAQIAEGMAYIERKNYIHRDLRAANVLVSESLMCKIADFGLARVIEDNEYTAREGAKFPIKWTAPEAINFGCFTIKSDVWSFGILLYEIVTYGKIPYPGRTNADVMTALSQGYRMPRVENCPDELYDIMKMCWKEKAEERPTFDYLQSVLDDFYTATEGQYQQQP
Chain of MAP/microtubule affinity-regulating kinase 3 (Homo sapiens) (P27448 whole entry, looked up, the tested form may be a part): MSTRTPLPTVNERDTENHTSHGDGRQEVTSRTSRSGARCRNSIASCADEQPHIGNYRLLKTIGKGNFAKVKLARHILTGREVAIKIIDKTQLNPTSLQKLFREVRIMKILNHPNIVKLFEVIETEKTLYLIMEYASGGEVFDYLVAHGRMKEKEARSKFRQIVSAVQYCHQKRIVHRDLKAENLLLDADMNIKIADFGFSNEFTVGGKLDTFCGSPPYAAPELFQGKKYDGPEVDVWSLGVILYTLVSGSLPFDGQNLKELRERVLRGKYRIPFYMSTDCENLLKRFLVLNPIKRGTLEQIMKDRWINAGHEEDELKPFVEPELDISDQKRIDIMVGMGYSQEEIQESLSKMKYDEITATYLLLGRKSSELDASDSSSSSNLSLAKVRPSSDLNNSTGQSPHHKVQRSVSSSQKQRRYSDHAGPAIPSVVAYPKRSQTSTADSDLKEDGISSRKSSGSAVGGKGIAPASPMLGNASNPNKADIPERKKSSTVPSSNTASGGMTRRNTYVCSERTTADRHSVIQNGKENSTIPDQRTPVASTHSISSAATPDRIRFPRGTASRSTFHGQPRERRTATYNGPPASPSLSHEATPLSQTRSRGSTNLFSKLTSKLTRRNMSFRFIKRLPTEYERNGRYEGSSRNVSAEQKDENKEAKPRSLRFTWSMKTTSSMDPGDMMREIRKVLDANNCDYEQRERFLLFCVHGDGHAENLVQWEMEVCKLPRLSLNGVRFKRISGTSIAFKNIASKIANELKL
Chain of Cyclin-dependent kinase 15 (Homo sapiens) (Q96Q40 whole entry, the tested form may be a part): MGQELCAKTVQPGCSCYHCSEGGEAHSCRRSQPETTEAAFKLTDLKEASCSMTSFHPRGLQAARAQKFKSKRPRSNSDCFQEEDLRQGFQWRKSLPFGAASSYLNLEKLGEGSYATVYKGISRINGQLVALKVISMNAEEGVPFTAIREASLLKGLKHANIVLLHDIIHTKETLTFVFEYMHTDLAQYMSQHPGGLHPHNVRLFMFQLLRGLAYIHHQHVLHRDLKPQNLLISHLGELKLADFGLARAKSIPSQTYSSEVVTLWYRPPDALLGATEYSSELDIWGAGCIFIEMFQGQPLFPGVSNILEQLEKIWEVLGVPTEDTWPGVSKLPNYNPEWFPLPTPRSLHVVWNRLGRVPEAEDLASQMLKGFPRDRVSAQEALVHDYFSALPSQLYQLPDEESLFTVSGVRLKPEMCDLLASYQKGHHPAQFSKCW
Chain of SNF-related serine/threonine-protein kinase (Homo sapiens) (Q9NRH2 whole entry, the tested form may be a part): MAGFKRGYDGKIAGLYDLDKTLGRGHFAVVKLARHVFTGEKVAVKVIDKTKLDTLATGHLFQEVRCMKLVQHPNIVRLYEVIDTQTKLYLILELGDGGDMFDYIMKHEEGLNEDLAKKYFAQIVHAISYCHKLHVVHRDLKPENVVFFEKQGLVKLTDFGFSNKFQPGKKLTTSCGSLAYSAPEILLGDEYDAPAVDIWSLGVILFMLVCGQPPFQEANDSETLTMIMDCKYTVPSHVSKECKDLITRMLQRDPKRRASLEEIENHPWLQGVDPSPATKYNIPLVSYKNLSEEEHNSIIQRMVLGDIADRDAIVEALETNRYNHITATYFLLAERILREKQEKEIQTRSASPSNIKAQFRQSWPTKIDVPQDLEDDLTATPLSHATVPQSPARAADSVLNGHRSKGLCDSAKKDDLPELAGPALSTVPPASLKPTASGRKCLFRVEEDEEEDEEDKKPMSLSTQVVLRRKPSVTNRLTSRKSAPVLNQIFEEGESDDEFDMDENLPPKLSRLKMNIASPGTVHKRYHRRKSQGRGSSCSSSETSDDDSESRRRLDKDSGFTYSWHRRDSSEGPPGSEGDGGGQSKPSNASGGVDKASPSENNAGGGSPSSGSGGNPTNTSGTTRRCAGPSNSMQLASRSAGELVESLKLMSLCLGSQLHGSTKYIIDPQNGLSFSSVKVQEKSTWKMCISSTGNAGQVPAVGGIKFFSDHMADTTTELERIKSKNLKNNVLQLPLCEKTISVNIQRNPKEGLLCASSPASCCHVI
Chain of Microtubule-associated serine/threonine-protein kinase 1 (Homo sapiens) (Q9Y2H9 whole entry, looked up, the tested form may be a part): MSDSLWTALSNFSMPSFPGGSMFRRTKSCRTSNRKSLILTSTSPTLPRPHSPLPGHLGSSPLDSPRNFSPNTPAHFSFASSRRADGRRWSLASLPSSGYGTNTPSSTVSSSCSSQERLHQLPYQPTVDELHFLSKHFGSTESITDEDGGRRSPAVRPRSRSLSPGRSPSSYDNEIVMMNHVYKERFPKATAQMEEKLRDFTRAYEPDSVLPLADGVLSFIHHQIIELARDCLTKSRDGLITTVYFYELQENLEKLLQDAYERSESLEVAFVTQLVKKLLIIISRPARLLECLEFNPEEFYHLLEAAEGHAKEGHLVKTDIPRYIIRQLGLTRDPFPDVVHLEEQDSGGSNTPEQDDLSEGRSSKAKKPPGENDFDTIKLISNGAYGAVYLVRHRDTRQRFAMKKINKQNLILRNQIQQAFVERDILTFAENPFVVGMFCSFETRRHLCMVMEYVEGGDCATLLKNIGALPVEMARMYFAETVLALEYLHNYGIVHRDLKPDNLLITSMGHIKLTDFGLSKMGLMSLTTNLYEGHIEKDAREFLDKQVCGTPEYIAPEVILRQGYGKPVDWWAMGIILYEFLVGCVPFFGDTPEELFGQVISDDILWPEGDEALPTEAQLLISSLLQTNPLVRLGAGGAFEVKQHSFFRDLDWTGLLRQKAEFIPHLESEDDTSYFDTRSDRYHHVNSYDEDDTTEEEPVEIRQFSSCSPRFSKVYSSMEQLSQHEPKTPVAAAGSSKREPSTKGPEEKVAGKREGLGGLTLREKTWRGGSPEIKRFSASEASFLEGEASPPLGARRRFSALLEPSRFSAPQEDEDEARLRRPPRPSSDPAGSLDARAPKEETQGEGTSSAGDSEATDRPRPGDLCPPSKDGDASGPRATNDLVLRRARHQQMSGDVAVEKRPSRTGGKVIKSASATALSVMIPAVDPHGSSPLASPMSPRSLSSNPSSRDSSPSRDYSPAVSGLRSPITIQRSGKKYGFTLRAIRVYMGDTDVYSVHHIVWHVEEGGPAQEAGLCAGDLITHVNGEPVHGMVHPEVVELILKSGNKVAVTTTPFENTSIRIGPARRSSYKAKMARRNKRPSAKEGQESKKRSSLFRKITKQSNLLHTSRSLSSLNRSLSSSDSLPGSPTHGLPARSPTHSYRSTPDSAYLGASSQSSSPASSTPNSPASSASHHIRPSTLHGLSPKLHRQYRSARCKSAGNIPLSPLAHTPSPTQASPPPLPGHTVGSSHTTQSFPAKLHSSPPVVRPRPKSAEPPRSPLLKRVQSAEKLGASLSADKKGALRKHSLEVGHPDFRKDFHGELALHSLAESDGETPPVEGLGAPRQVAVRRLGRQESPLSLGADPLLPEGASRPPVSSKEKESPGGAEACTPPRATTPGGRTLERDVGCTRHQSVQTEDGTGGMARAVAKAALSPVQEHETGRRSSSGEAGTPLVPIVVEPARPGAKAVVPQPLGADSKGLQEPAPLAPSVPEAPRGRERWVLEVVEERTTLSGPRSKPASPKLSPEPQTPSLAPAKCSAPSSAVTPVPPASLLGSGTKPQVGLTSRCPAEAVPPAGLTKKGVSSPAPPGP
Chain of Mitogen-activated protein kinase kinase kinase kinase 1 (Homo sapiens) (Q92918 whole entry, looked up, the tested form may be a part): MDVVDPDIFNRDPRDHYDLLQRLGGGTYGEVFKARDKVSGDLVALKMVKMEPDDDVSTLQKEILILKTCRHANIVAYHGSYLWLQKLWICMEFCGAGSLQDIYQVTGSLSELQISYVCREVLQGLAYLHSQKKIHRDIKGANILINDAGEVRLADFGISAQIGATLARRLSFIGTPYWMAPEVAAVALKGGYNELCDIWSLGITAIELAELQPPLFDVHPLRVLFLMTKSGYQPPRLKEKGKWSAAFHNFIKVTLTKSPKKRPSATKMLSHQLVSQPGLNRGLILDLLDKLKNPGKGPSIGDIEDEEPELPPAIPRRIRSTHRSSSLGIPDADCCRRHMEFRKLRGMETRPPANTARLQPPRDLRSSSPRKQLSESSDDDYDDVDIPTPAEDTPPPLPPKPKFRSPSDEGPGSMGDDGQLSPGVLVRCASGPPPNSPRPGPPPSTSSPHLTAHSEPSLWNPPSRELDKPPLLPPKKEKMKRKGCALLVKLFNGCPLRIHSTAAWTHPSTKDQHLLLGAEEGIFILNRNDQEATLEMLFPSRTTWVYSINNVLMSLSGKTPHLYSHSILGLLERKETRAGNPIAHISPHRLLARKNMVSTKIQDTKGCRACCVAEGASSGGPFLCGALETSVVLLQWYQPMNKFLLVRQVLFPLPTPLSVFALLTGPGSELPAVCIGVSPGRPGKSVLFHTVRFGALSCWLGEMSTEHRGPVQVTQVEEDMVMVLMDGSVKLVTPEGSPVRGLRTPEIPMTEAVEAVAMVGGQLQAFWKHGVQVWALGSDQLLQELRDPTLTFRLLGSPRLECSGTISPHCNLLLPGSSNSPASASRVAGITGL

`O=C(Nc1cc(-c2cn(CCNc3c4c(nc5ccccc35)CCCC4)nn2)ccn1)Nc1cccc2c1C1CCCCN1C2=O` (racemic): the Activity turned out to be 90% in [1]; 60% in assay [2]; 76% in assay [3]; 7% in [4]; 12% in assay [5]; 7.5% in assay [6]. The Activity came out at 68% in assay [7]; 0.05% in [8]; 83% in assay [9]; 91% in assay [10]; 100% in [11]; 12% in assay [12]. In addition, the Activity in assay [13] was found to be 91%; in assay [14] it was 58%; in assay [15], 28%; in [16], 5.7%; in assay [17] it was 11%; in [18], 100%. Further, the Activity in assay [19] was found to be 3.3%; in assay [20] it was 22%; in [21] it was 10%; in assay [22] it was 100%; in assay [23], 15%; in assay [24] it was 100%.
